# Measurements published in patent EP0543555A1, “Phosphorylated flavanoids in the treatment of viral diseases” (MERRELL DOW PHARMACEUTICALS INC., priority 1991, dated 1993).
# Several values for one entry are separate records, joined by “and”; a condition that tells them apart may be missing. Equal entries are not always repeated. Where two headings read alike, the source gives them in different places.
# Legend:
# CMV = test: Anti-CMV plaque reduction assay (AD169 strain, MRC 5 cell line); format: cell-based, cytomegalovirus (CMV); conditions: for %: % of virus control
# Experimental: Experiments were carried out whereby phosphorylated hesperidin was present at the following times of the virus (AD169 strain, MRC 5 cell line) growth cycle. • 1. During adsorption and after • 2. During adsorption, then not • 3. Only added after adsorption A virus control with no drug was present on each plate.
# [1] = system: Herpes type 2 strain HG52; test: Herpes type 2 plaque reduction assay (Vero cells); format: cell-based; conditions: for %: % of virus control
# Source text: Cell Line: Vero Virus: Herpes type 2 strain HG52
# HIV-1 = conditions: for Mean Syncytial Counts Day 3 % / Mean Syncytial Counts Day 4 %: % of virus control; for Mean Syncytial Counts Day 4 %: 5760 min
# Experimental: JM cells were infected with HIV-1 for 2 hours at room temperature. The cells were then washed and distributed into duplicate wells containing different concentrations of the test compound and incubated at 37°C. On days 3 and 4 the cells were observed and the syncytia counted and on day 4 the supernatant fluid was also harvested for detection of p24 viral core antigen using the Abbott EIA.
# [2] = First trial, added before and after adsorption, 31 µg/ml
# [3] = Second trial, during and after adsorption, 31 µg/ml
# [4] = Second trial, during and after adsorption, 62 µg/ml
# [5] = Third trial, after adsorption only, 3.75 µg/ml
# [6] = Third trial, after adsorption only, 7.5 µg/ml
# [7] = Third trial, after adsorption only, 15 µg/ml
# [8] = Third trial, after adsorption only, 31µg/ml
# [9] = Third trial, after adsorption only, 62 µg/ml
# [10] = Third trial, during adsorption only, 3.75 µg/ml
# [11] = Third trial, during adsorption only, 7.5 µg/ml
# [12] = Third trial, during adsorption only, 15 µg/ml
# [13] = Third trial, during adsorption only, 31µg/ml
# [14] = Third trial, during and after adsorption, 3.75 µg/ml
# [15] = Third trial, during and after adsorption, 7.5 µg/ml
# [16] = Third trial, during and after adsorption, 15 µg/ml
# [17] = Third trial, during and after adsorption, 31µg/ml
# [18] = Third trial, during and after adsorption, 62 µg/ml
# [19] = First trial, during adsorption and incubation, 10 µg/ml
# [20] = First trial, during adsorption and incubation, 50 µg/ml
# [21] = First trial, during adsorption and incubation, 100 µg/ml
# [22] = First trial, during adsorption, 10 µg/ml
# [23] = First trial, during adsorption, 50 µg/ml
# [24] = First trial, during adsorption, 100 µg/ml
# [25] = Second trial, during adsorption and incubation, 125 µg/ml
# [26] = Second trial, during adsorption and incubation, 250 µg/ml
# [27] = Second trial, during adsorption and incubation, 500 µg/ml
# [28] = Second trial, during adsorption, 500 µg/ml
# [29] = Second trial, incubation only, 125 µg/ml
# [30] = Second trial, incubation only, 250 µg/ml
# [31] = Second trial, incubation only, 500 µg/ml
substance,measurement,setting,value
Phosphorylated Hesperidin,No. of Plaques,CMV; [2],27 and 20 and 24
same,No. of Plaques Average,CMV; [2],24
same,%,CMV; [2],9.9%
same,No. of Plaques,"CMV; First trial, added before and after adsorption, 125 µg/ml",No plaques
same,No. of Plaques,"CMV; First trial, added before and after adsorption, 250 µg/ml",totally blocked
same,No. of Plaques,"CMV; Second trial, after adsorption only, 31 µg/m",As virus control
same,No. of Plaques,"CMV; Second trial, after adsorption only, 62 µg/ml",As virus control
same,No. of Plaques,"CMV; Second trial, after adsorption only, 125 µg/ml",As virus control
same,No. of Plaques,"CMV; Second trial, after adsorption only, 250 µg/ml",None
same,No. of Plaques,"CMV; Second trial, after adsorption only, 500 µg/ml",None
same,No. of Plaques,CMV; [3],35 and 40
same,No. of Plaques Average,CMV; [3],32.5
same,%,CMV; [3],17%
same,No. of Plaques,CMV; [4],35 and 40
same,No. of Plaques Average,CMV; [4],37.5
same,%,CMV; [4],22%
same,No. of Plaques,"CMV; Second trial, during and after adsorption, 125 µg/ml, estimate",~40 (estimate)
same,No. of Plaques,"CMV; Second trial, during and after adsorption, 250 µg/ml",None
same,No. of Plaques,"CMV; Second trial, during and after adsorption, 500 µg/ml",None
same,No. of Plaques,CMV; [5],As v.c.
same,%,CMV; [5],100%
same,No. of Plaques,CMV; [6],As v.c
same,%,CMV; [6],100%
same,No. of Plaques,CMV; [7],120 125 131
same,No. of Plaques Average,CMV; [7],125
same,plaque size (remark in No. of Plaques cell),CMV; [7],much smaller plaques
same,%,CMV; [7],66%
same,No. of Plaques,CMV; [8],119 125 128
same,No. of Plaques Average,CMV; [8],124
same,%,CMV; [8],65%
same,No. of Plaques Average,CMV; [9],89
same,plaque size (remark in No. of Plaques cell),CMV; [9],smaller plaques
same,%,CMV; [9],47%
same,No. of Plaques,CMV; [10],As v.c.
same,%,CMV; [10],100%
same,No. of Plaques,CMV; [11],As v.c.
same,No. of Plaques Average,CMV; [11],141
same,%,CMV; [11],100%
same,No. of Plaques,CMV; [12],148 140 135
same,%,CMV; [12],74%
same,No. of Plaques,CMV; [13],120 115 111
same,No. of Plaques Average,CMV; [13],115
same,plaque size (remark in No. of Plaques cell),CMV; [13],much smaller plaques
same,%,CMV; [13],61%
same,state of monolayer (printed in place of No. of Plaques),"CMV; Third trial, during adsorption only, 62 µg/ml, MRC 5 cell line",monolayer destroyed
same,No. of Plaques,CMV; [14],128 125 121
same,No. of Plaques Average,CMV; [14],125
same,%,CMV; [14],66%
same,No. of Plaques,CMV; [15],119 115 103
same,No. of Plaques Average,CMV; [15],122
same,%,CMV; [15],64%
same,No. of Plaques Average,CMV; [16],76
same,%,CMV; [16],40%
same,No. of Plaques Average,CMV; [17],60
same,%,CMV; [17],32%
same,No. of Plaques Average,CMV; [18],48
same,%,CMV; [18],25%
same,No. of Plaques,[1]; [19],253 and 243
same,No. of Plaques Average,[1]; [19],248
same,%,[1]; [19],100%
same,No. of Plaques,[1]; [20],112 and 132
same,No. of Plaques Average,[1]; [20],122
same,%,[1]; [20],54%
same,No. of Plaques,[1]; [21],95 and 62
same,No. of Plaques Average,[1]; [21],78.5
same,%,[1]; [21],35%
same,No. of Plaques,[1]; [22],211 and 231
same,No. of Plaques Average,[1]; [22],221
same,%,[1]; [22],98%
same,No. of Plaques,[1]; [23],154 and 146
same,No. of Plaques Average,[1]; [23],150
same,%,[1]; [23],66%
same,No. of Plaques,[1]; [24],187 and 144
same,No. of Plaques Average,[1]; [24],166
same,%,[1]; [24],73%
same,No. of Plaques,[1]; [25],58 and 71
same,No. of Plaques Average,[1]; [25],64.5
same,%,[1]; [25],46%
same,No. of Plaques,[1]; [26],11 and 10
same,No. of Plaques Average,[1]; [26],10.5
same,%,[1]; [26],7.5%
same,No. of Plaques,[1]; [27],None
same,No. of Plaques Average,[1]; [27],0
same,%,[1]; [27],0%
same,No. of Plaques,[1]; [28],50 and 58
same,No. of Plaques Average,[1]; [28],54
same,%,[1]; [28],38%
same,No. of Plaques,[1]; [29],50 and 61
same,No. of Plaques Average,[1]; [29],55.5
same,%,[1]; [29],39%
same,No. of Plaques,[1]; [30],16 and 11
same,No. of Plaques Average,[1]; [30],13.5
same,%,[1]; [30],9.6%
same,No. of Plaques,[1]; [31],None
same,No. of Plaques Average,[1]; [31],0
same,%,[1]; [31],0%
same,Mean Syncytial Counts Day 3 %,"HIV-1; Conc 0.1 µg/ml, 4320 min",100%
same,Mean Syncytial Counts Day 4 %,HIV-1; Conc 0.1 µg/ml,100%
same,Mean Syncytial Counts Day 3 %,"HIV-1; Conc 0.3 µg/ml, 4320 min",100%
same,Mean Syncytial Counts Day 4 %,HIV-1; Conc 0.3 µg/ml,100%
same,Mean Syncytial Counts Day 3 %,"HIV-1; Conc 1 µg/ml, 4320 min",100%
same,Mean Syncytial Counts Day 4 %,HIV-1; Conc 1 µg/ml,100%
same,Mean Syncytial Counts Day 3,HIV-1; Conc 3 µg/ml,As VC
same,Mean Syncytial Counts Day 3 %,HIV-1; Conc 3 µg/ml,100%
same,Mean Syncytial Counts Day 4 %,HIV-1; Conc 3 µg/ml,100%
same,Mean Syncytial Counts Day 3,HIV-1; Conc 10 µg/ml,51
same,Mean Syncytial Counts Day 4,HIV-1; Conc 10 µg/ml,As VC
same,Mean Syncytial Counts Day 3 %,"HIV-1; Conc 10 µg/ml, 4320 min",89%
same,Mean Syncytial Counts Day 4 %,HIV-1; Conc 10 µg/ml,100%
same,Mean Syncytial Counts Day 3,HIV-1; Conc 30 µg/ml,9
same,Mean Syncytial Counts Day 4,HIV-1; Conc 30 µg/ml,45
same,Mean Syncytial Counts Day 3 %,"HIV-1; Conc 30 µg/ml, 4320 min",16%
same,Mean Syncytial Counts Day 4 %,HIV-1; Conc 30 µg/ml,48%
same,Mean Syncytial Counts Day 3,HIV-1; Conc 100 µg/ml,0
same,Mean Syncytial Counts Day 4,HIV-1; Conc 100 µg/ml,5
same,Mean Syncytial Counts Day 3 %,"HIV-1; Conc 100 µg/ml, 4320 min",0%
same,Mean Syncytial Counts Day 4 %,HIV-1; Conc 100 µg/ml,5%
